Measurements reported in ChEMBL document CHEMBL5303573, “Mapping human microbiome drug metabolism by gut bacteria and their genes” (Nature, 2019).

Tests used:
[1] = The drug is tested on Bacteroides fragilis strain: HMW615 for biotransformation. The drug concentrations were measured before and after a 12-h incubation by liquid-chromatography-coupled mass spectrometry (LC–MS); settings: 2 µM
[2] = The drug is tested on Enterobacter cancerogenus strain: ATCC35316 for biotransformation. The drug concentrations were measured before and after a 12-h incubation by liquid-chromatography-coupled mass spectrometry (LC–MS); settings: 2 µM
[3] = The drug is tested on Ruminococcus torques strain: ATCC27756 for biotransformation. The drug concentrations were measured before and after a 12-h incubation by liquid-chromatography-coupled mass spectrometry (LC–MS); type: ADME; design: dose 2 uM, timepoint 0 vs 12 hours; settings: 2 µM
[4] = The drug is tested on Blautia luti strain: DSM14534 for biotransformation. The drug concentrations were measured before and after a 12-h incubation by liquid-chromatography-coupled mass spectrometry (LC–MS); type: ADME; design: dose 2 uM, timepoint 0 vs 12 hours; settings: 2 µM
[5] = The drug is tested on Bacteroides coprophilus strain: DSM18228 for biotransformation. The drug concentrations were measured before and after a 12-h incubation by liquid-chromatography-coupled mass spectrometry (LC–MS); settings: 2 µM
[6] = The drug is tested on Clostridium symbiosum strain: ATCC14940 for biotransformation. The drug concentrations were measured before and after a 12-h incubation by liquid-chromatography-coupled mass spectrometry (LC–MS); settings: 2 µM
[7] = The drug is tested on Bacteroides cellulosilyticus strain: DSM14838 for biotransformation. The drug concentrations were measured before and after a 12-h incubation by liquid-chromatography-coupled mass spectrometry (LC–MS); settings: 2 µM
[8] = The drug is tested on Bacteroides fragilis strain: HMW610 for biotransformation. The drug concentrations were measured before and after a 12-h incubation by liquid-chromatography-coupled mass spectrometry (LC–MS); settings: 2 µM
[9] = The drug is tested on Subdoligranulum variabile strain: DSM15176 for biotransformation. The drug concentrations were measured before and after a 12-h incubation by liquid-chromatography-coupled mass spectrometry (LC–MS); settings: 2 µM
[10] = The drug is tested on Bacteroides dorei strain: DSM17855 for biotransformation. The drug concentrations were measured before and after a 12-h incubation by liquid-chromatography-coupled mass spectrometry (LC–MS); settings: phocaeicola dorei, 2 µM
[11] = The drug is tested on Ruminococcus lactaris strain: ATCC29176 for biotransformation. The drug concentrations were measured before and after a 12-h incubation by liquid-chromatography-coupled mass spectrometry (LC–MS); settings: 2 µM
[12] = The drug is tested on Bacteroides fragilis strain: ATCC43859 for biotransformation. The drug concentrations were measured before and after a 12-h incubation by liquid-chromatography-coupled mass spectrometry (LC–MS); settings: 2 µM
[13] = bacteroides fragilis, 12 h, 2 µM
Description: The drug is tested on Bacteroides fragilis strain: 3397 (T10) for biotransformation. The drug concentrations were measured before and after a 12-h incubation by liquid-chromatography-coupled mass spectrometry (LC–MS)

[14] = The drug is tested on Clostridium ramosum strain: DSM1402 for biotransformation. The drug concentrations were measured before and after a 12-h incubation by liquid-chromatography-coupled mass spectrometry (LC–MS); settings: thomasclavelia ramosa, 2 µM
[15] = bacteroides fragilis, 12 h, 2 µM; remark: listed apart in the source
Description: The drug is tested on Bacteroides fragilis strain: NCTC 9343 for biotransformation. The drug concentrations were measured before and after a 12-h incubation by liquid-chromatography-coupled mass spectrometry (LC–MS)

[16] = anaerostipes sp., 12 h, 2 µM
Description: The drug is tested on Anaerostipes sp. strain: fecal isolate for biotransformation. The drug concentrations were measured before and after a 12-h incubation by liquid-chromatography-coupled mass spectrometry (LC–MS)

[17] = The drug is tested on Parabacteroides merdae strain: ATCC43184 for biotransformation. The drug concentrations were measured before and after a 12-h incubation by liquid-chromatography-coupled mass spectrometry (LC–MS); settings: 2 µM
[18] = The drug is tested on Alistipes indistinctus strain: DSM22520 for biotransformation. The drug concentrations were measured before and after a 12-h incubation by liquid-chromatography-coupled mass spectrometry (LC–MS); settings: 2 µM
[19] = The drug is tested on Clostridium sporogenes strain: ATCC15579 for biotransformation. The drug concentrations were measured before and after a 12-h incubation by liquid-chromatography-coupled mass spectrometry (LC–MS); settings: 2 µM
[20] = The drug is tested on Collinsella intestinalis strain: DSM13280 for biotransformation. The drug concentrations were measured before and after a 12-h incubation by liquid-chromatography-coupled mass spectrometry (LC–MS); settings: 2 µM

| Structure (SMILES) | Bacterial Biotransformation [1] | Bacterial Biotransformation [2] | Bacterial Biotransformation [3] | Bacterial Biotransformation [4] | Bacterial Biotransformation [5] | Bacterial Biotransformation [6] | Bacterial Biotransformation [7] | Bacterial Biotransformation [8] | Bacterial Biotransformation [9] | Bacterial Biotransformation [10] | Bacterial Biotransformation [11] | Bacterial Biotransformation [12] | Bacterial Biotransformation [13] | Bacterial Biotransformation [14] | Bacterial Biotransformation [15] | Bacterial Biotransformation [16] | Bacterial Biotransformation [17] | Bacterial Biotransformation [18] | Bacterial Biotransformation [19] | Bacterial Biotransformation [20] |
| --- | --- | --- | --- | --- | --- | --- | --- | --- | --- | --- | --- | --- | --- | --- | --- | --- | --- | --- | --- | --- |
| C[C@@H](CO)NC(=O)[C@@H]1C=C2c3cccc4[nH]cc(c34)C[C@H]2N(C)C1.O=C(O)/C=C\C(=O)O [ERGONOVINE MALEATE] | Compound metabolized | Compound metabolized | Compound NOT metabolized | Compound NOT metabolized | Compound metabolized | Compound metabolized | Compound metabolized | Compound metabolized | Compound NOT metabolized | Compound metabolized | Compound metabolized | Compound metabolized | Compound metabolized | Compound NOT metabolized | Compound metabolized | Compound NOT metabolized |  |  |  |  |
| CCCCC1=NC2(CCCC2)C(=O)N1Cc1ccc(-c2ccccc2-c2nnn[nH]2)cc1 [IRBESARTAN] | Compound metabolized | Compound metabolized | Compound metabolized | Compound NOT metabolized | Compound NOT metabolized | Compound metabolized | Compound metabolized | Compound metabolized | Compound metabolized | Compound metabolized | Compound metabolized | Compound metabolized |  |  | Compound metabolized | Compound metabolized | Compound metabolized | Compound metabolized | Compound NOT metabolized | Compound NOT metabolized |
| OCCOCCN1CCN(C2=Nc3ccccc3Sc3ccccc32)CC1 [QUETIAPINE] | Compound NOT metabolized | Compound NOT metabolized | Compound NOT metabolized | Compound NOT metabolized | Compound NOT metabolized | Compound NOT metabolized | Compound NOT metabolized | Compound NOT metabolized | Compound NOT metabolized | Compound NOT metabolized | Compound NOT metabolized | Compound NOT metabolized | Compound NOT metabolized |  | Compound NOT metabolized | Compound NOT metabolized | Compound NOT metabolized | Compound NOT metabolized |  | Compound NOT metabolized |
| COc1ccccc1OCC(O)CN1CCN(CC(=O)Nc2c(C)cccc2C)CC1 (stereo not drawn) [RANOLAZINE] | Compound NOT metabolized | Compound NOT metabolized | Compound NOT metabolized | Compound NOT metabolized | Compound NOT metabolized | Compound NOT metabolized | Compound NOT metabolized | Compound NOT metabolized | Compound NOT metabolized | Compound NOT metabolized | Compound NOT metabolized | Compound NOT metabolized | Compound NOT metabolized |  | Compound NOT metabolized | Compound NOT metabolized | Compound NOT metabolized | Compound NOT metabolized |  | Compound NOT metabolized |
| CCN(C)C(=O)Oc1cccc([C@H](C)N(C)C)c1.O=C(O)C(O)C(O)C(=O)O [RIVASTIGMINE TARTRATE] | Compound NOT metabolized | Compound NOT metabolized | Compound NOT metabolized | Compound NOT metabolized |  | Compound NOT metabolized | Compound NOT metabolized | Compound NOT metabolized | Compound NOT metabolized |  | Compound NOT metabolized | Compound NOT metabolized | Compound NOT metabolized | Compound NOT metabolized |  | Compound NOT metabolized | Compound NOT metabolized |  | Compound NOT metabolized | Compound NOT metabolized |
| CCCN(CCC)CCc1cccc2c1CC(=O)N2 [ROPINIROLE] | Compound NOT metabolized | Compound NOT metabolized | Compound NOT metabolized | Compound NOT metabolized |  | Compound NOT metabolized | Compound NOT metabolized | Compound NOT metabolized | Compound NOT metabolized | Compound NOT metabolized | Compound NOT metabolized | Compound NOT metabolized |  | Compound NOT metabolized | Compound NOT metabolized | Compound NOT metabolized | Compound NOT metabolized |  | Compound NOT metabolized | Compound NOT metabolized |
| CCCc1nn(C)c2c(=O)[nH]c(-c3cc(S(=O)(=O)N4CCN(C)CC4)ccc3OCC)nc12.O=C(O)CC(O)(CC(=O)O)C(=O)O [SILDENAFIL CITRATE] | Compound NOT metabolized | Compound NOT metabolized | Compound NOT metabolized | Compound NOT metabolized | Compound metabolized | Compound NOT metabolized | Compound NOT metabolized |  | Compound NOT metabolized |  | Compound NOT metabolized | Compound NOT metabolized | Compound NOT metabolized |  | Compound metabolized | Compound NOT metabolized | Compound NOT metabolized | Compound NOT metabolized |  | Compound NOT metabolized |
| O=C1C(CC[S+]([O-])c2ccccc2)C(=O)N(c2ccccc2)N1c1ccccc1 (stereo not drawn) [SULFINPYRAZONE] | Compound metabolized | Compound metabolized |  | Compound NOT metabolized | Compound NOT metabolized |  | Compound NOT metabolized | Compound metabolized | Compound NOT metabolized |  | Compound NOT metabolized | Compound metabolized | Compound NOT metabolized |  | Compound metabolized | Compound NOT metabolized | Compound NOT metabolized | Compound NOT metabolized |  | Compound NOT metabolized |
| CC[C@@]1(O)C(=O)OCc2c1cc1n(c2=O)Cc2cc3c(CN(C)C)c(O)ccc3nc2-1 [TOPOTECAN] | Compound NOT metabolized | Compound NOT metabolized | Compound NOT metabolized | Compound NOT metabolized | Compound NOT metabolized | Compound NOT metabolized | Compound NOT metabolized | Compound NOT metabolized | Compound NOT metabolized | Compound NOT metabolized | Compound NOT metabolized | Compound NOT metabolized | Compound NOT metabolized | Compound NOT metabolized | Compound NOT metabolized | Compound NOT metabolized | Compound NOT metabolized |  | Compound NOT metabolized | Compound NOT metabolized |
